Measured values from PubChem BioAssay (NCI).
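All cell lines were grown in 96-well plates and treated with compound for 48 hours. GI50 = concentration required for 50% inhibition of growth. TGI denotes the concentration required for complete inhibition of growth.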

Experiments:
Assay in all cases: DTP human tumour cell line panel, 48 h
MCF7 breast = system: MCF7 breast
HCT-15 colon = system: HCT-15 colon
NCI/ADR-RES ovarian = system: NCI/ADR-RES ovarian
SF-268 CNS = system: SF-268 CNS
UO-31 renal = system: UO-31 renal
UACC-62 melanoma = system: UACC-62 melanoma
ACHN renal = system: ACHN renal
HL-60(TB) leukemia = system: HL-60(TB) leukemia
NCI-H522 lung = system: NCI-H522 lung
BT-549 breast = system: BT-549 breast
HT29 colon = system: HT29 colon
A498 renal = system: A498 renal
SK-MEL-5 melanoma = system: SK-MEL-5 melanoma
COLO 205 colon = system: COLO 205 colon
T-47D breast = system: T-47D breast
SW-620 colon = system: SW-620 colon
SK-MEL-28 melanoma = system: SK-MEL-28 melanoma
HOP-62 NSCLC = system: HOP-62 NSCLC
PC-3 prostate = system: PC-3 prostate
A549 NSCLC = system: A549 NSCLC
SNB-75 CNS = system: SNB-75 CNS
U251 CNS = system: U251 CNS
786-0 renal = system: 786-0 renal
MALME-3M melanoma = system: MALME-3M melanoma
DU-145 prostate = system: DU-145 prostate
NCI-H460 lung = system: NCI-H460 lung
HCC-2998 colon = system: HCC-2998 colon
TK-10 renal = system: TK-10 renal
SK-MEL-2 melanoma = system: SK-MEL-2 melanoma
M14 melanoma = system: M14 melanoma
UACC-257 melanoma = system: UACC-257 melanoma
LOX IMVI melanoma = system: LOX IMVI melanoma
MDA-MB-435 = system: MDA-MB-435
IGROV1 ovarian = system: IGROV1 ovarian
SF-539 CNS = system: SF-539 CNS
KM12 colon = system: KM12 colon
SF-295 CNS = system: SF-295 CNS
K-562 leukemia = system: K-562 leukemia
HCT-116 colon = system: HCT-116 colon
SN12C renal = system: SN12C renal
NCI-H226 lung = system: NCI-H226 lung
EKVX NSCLC = system: EKVX NSCLC
MDA-MB-231 breast = system: MDA-MB-231 breast
OVCAR-5 ovarian = system: OVCAR-5 ovarian
NCI-H23 lung = system: NCI-H23 lung
HS 578T breast = system: HS 578T breast
CAKI-1 renal = system: CAKI-1 renal
SK-OV-3 ovarian = system: SK-OV-3 ovarian
RXF 393 renal = system: RXF 393 renal
SNB-19 CNS = system: SNB-19 CNS
OVCAR-8 ovarian = system: OVCAR-8 ovarian
OVCAR-3 ovarian = system: OVCAR-3 ovarian
MOLT-4 leukemia = system: MOLT-4 leukemia
OVCAR-4 ovarian = system: OVCAR-4 ovarian

CCN(CC)Cc1cc(Nc2c3ccc(Cl)cc3nc3c(C)cccc23)ccc1O was tested, and the GI50 (MCF7 breast) was 1 µM, the TGI (MCF7 breast) was 2.32 µM and the GI50 (HCT-15 colon) was 1.15 µM. It also gave a TGI (HCT-15 colon) of 2.87 µM, a GI50 (NCI/ADR-RES ovarian) of 1.08 µM and a TGI (NCI/ADR-RES ovarian) of 3.02 µM. For the same compound, the GI50 (SF-268 CNS) was 1.53 µM, the TGI (SF-268 CNS) was 3.09 µM and the GI50 (UO-31 renal) was 1.06 µM. The TGI (UO-31 renal) was 2.27 µM, the GI50 (UACC-62 melanoma) was 1.96 µM and the TGI (UACC-62 melanoma) was 3.64 µM. For the same compound, the GI50 (ACHN renal) was 1.04 µM, the TGI (ACHN renal) was 2.24 µM and the GI50 (HL-60(TB) leukemia) was 2.42 µM. The TGI (HL-60(TB) leukemia) was 5.24 µM, the GI50 (NCI-H522 lung) was 0.585 µM and the TGI (NCI-H522 lung) was 1.92 µM. The GI50 (BT-549 breast) was 1.92 µM, the TGI (BT-549 breast) was 3.51 µM and the GI50 (HT29 colon) was 0.888 µM. It also gave a TGI (HT29 colon) of 2.42 µM, a GI50 (A498 renal) of 1.05 µM and a TGI (A498 renal) of 3 µM. For the same compound, the GI50 (SK-MEL-5 melanoma) was 1.76 µM, the TGI (SK-MEL-5 melanoma) was 3.15 µM and the GI50 (COLO 205 colon) was 1.23 µM. For the same compound, the TGI (COLO 205 colon) was 2.6 µM, the GI50 (T-47D breast) was 2.09 µM and the TGI (T-47D breast) was 4.08 µM. It also gave a GI50 (SW-620 colon) of 1.06 µM, a TGI (SW-620 colon) of 2.53 µM and a GI50 (SK-MEL-28 melanoma) of 1.78 µM. It also gave a TGI (SK-MEL-28 melanoma) of 3.22 µM, a GI50 (HOP-62 NSCLC) of 1.65 µM and a TGI (HOP-62 NSCLC) of 3.26 µM. The GI50 (PC-3 prostate) was 1.55 µM, the TGI (PC-3 prostate) was 3.1 µM and the GI50 (A549 NSCLC) was 1.64 µM. It also gave a TGI (A549 NSCLC) of 4.64 µM, a GI50 (SNB-75 CNS) of 1.5 µM and a TGI (SNB-75 CNS) of 2.84 µM. For the same compound, the GI50 (U251 CNS) was 1.46 µM, the TGI (U251 CNS) was 2.84 µM and the GI50 (786-0 renal) was 1.37 µM. For the same compound, the TGI (786-0 renal) was 2.67 µM, the GI50 (MALME-3M melanoma) was 1.65 µM and the TGI (MALME-3M melanoma) was 3.13 µM. For the same compound, the GI50 (DU-145 prostate) was 2.3 µM, the TGI (DU-145 prostate) was 6.99 µM and the GI50 (NCI-H460 lung) was 1.16 µM. The TGI (NCI-H460 lung) was 2.7 µM, the GI50 (HCC-2998 colon) was 1.2 µM and the TGI (HCC-2998 colon) was 2.47 µM. For the same compound, the GI50 (TK-10 renal) was 2.69 µM, the TGI (TK-10 renal) was 5.59 µM and the GI50 (SK-MEL-2 melanoma) was 1.94 µM. It also gave a TGI (SK-MEL-2 melanoma) of 3.73 µM, a GI50 (M14 melanoma) of 1.69 µM and a TGI (M14 melanoma) of 3.11 µM. For the same compound, the GI50 (UACC-257 melanoma) was 1.99 µM, the TGI (UACC-257 melanoma) was 3.62 µM and the GI50 (LOX IMVI melanoma) was 1.29 µM. It also gave a TGI (LOX IMVI melanoma) of 2.61 µM, a GI50 (MDA-MB-435) of 1.75 µM and a TGI (MDA-MB-435) of 3.14 µM. The GI50 (IGROV1 ovarian) was 0.56 µM, the TGI (IGROV1 ovarian) was 1.78 µM and the GI50 (SF-539 CNS) was 1.73 µM. For the same compound, the TGI (SF-539 CNS) was 3.12 µM, the GI50 (KM12 colon) was 1.59 µM and the TGI (KM12 colon) was 3.46 µM. For the same compound, the GI50 (SF-295 CNS) was 1.78 µM, the TGI (SF-295 CNS) was 3.34 µM and the GI50 (K-562 leukemia) was 1.16 µM. It also gave a TGI (K-562 leukemia) of 5.48 µM, a GI50 (HCT-116 colon) of 0.982 µM and a TGI (HCT-116 colon) of 2.21 µM. The GI50 (SN12C renal) was 1.36 µM, the TGI (SN12C renal) was 2.92 µM and the GI50 (NCI-H226 lung) was 1.71 µM. For the same compound, the TGI (NCI-H226 lung) was 3.51 µM, the GI50 (EKVX NSCLC) was 1.86 µM and the TGI (EKVX NSCLC) was 3.98 µM. The GI50 (MDA-MB-231 breast) was 1.83 µM, the TGI (MDA-MB-231 breast) was 3.81 µM and the GI50 (OVCAR-5 ovarian) was 2.1 µM. It also gave a TGI (OVCAR-5 ovarian) of 4.86 µM, a GI50 (NCI-H23 lung) of 1.65 µM and a TGI (NCI-H23 lung) of 3.22 µM. For the same compound, the GI50 (HS 578T breast) was 1.92 µM, the TGI (HS 578T breast) was 4.57 µM and the GI50 (CAKI-1 renal) was 1.53 µM. For the same compound, the TGI (CAKI-1 renal) was 2.92 µM, the GI50 (SK-OV-3 ovarian) was 1.78 µM and the TGI (SK-OV-3 ovarian) was 3.33 µM. For the same compound, the GI50 (RXF 393 renal) was 1.3 µM, the TGI (RXF 393 renal) was 2.63 µM and the GI50 (SNB-19 CNS) was 1.45 µM. It also gave a TGI (SNB-19 CNS) of 3.29 µM, a GI50 (OVCAR-8 ovarian) of 1.34 µM and a TGI (OVCAR-8 ovarian) of 3.45 µM. For the same compound, the GI50 (OVCAR-3 ovarian) was 1.97 µM, the TGI (OVCAR-3 ovarian) was 3.73 µM and the GI50 (MOLT-4 leukemia) was 0.855 µM. It also gave a TGI (MOLT-4 leukemia) of 10.9 µM, a GI50 (OVCAR-4 ovarian) of 1.53 µM and a TGI (OVCAR-4 ovarian) of 2.97 µM.
